Test results reported in US6331528A, “Method for treatment in gene therapy and use of guanine derivative therefor” (priority 2000, dated 2001).
≈ marks a conversion by molar mass, not a printed value.

Legend:
[1] = background statement; cited from earlier work
[2] = tested on: mouse granulocyte macrophage precursor cell (CFU-GM); experiment: Effect on the inhibition of the growth of mouse granulocyte macrophage precursor cell (CFU-GM); assay type: cell-based, mouse C57BL/6N Crj; details: for IC50: CFU-GM, 168 h, mouse femur bone marrow cells, 4×10^4 cells/ml, mouse interleukin-3, 7 days, 37° C., read-out: IC50 (inhibition of CFU-GM colony formation)
Method: The effects of the guanine derivative for use in accordance with the invention (the free form of the compound represented by the structural formula 1), ganciclovir and aciclovir (Comparative Examples 2 and 2') on the inhibition of the growth of mouse granulocyte macrophage precursor cell (CFU-GM) were tested. The mouse granulocyte macrophage precursor cell of Okano et al. [see Okano A. et al., Transplantation 48 (1989) p. 495-498]. The effects on the inhibition of the growth of CFU-GM were assayed as follows. From the femur bone marrow of mouse C57BL/6N Crj females of age 10 weeks was prepared bone marrow cell, which was then inoculated at a concentration of 4×10^4 cells/ml in a semi-solid culture medium with addition of various concentrations of the guanine derivative, ganciclovir and aciclovir (Iscove's modified Dulbecco's medium, 0.8% carboxymethyl cellulose, 20% FBS, 200 units/ml mouse interleukin-3). The cell was cultured in 37° C. in 5% CO2 in a wet atmosphere on a 35-mm plate for 7 days. The emerging CFU-GM colonies were counted with a differential microscope.

RERF-LC-MA/LZRNL cell = experiment: Cellular toxicity in control cell with no insertion of HSV-1 thymidine kinase gene (MTT); assay type: cell-based; details: Homo sapiens, 96 h, control RERF-LC-MA/LZRNL cell without HSV-1 thymidine kinase gene, 4 days
Method: (§1) The cellular toxicities of the quanine derivative for use in accordance with the invention (the compound in the free form represented by the structural formula 1), ganciclovir and aciclovir (Comparative Example 1 and 1') against HSV-1 thymidine kinase gene-introduced cells were tested.
(§2) Human lung small cell carcinoma-derived RERF-LC-MA cell was infected with a viral vector prepared by inserting the thymidine kinase gene in a vector derived from Molony mouse leukemia virus. The resulting RERF-LC-MA/LTRNL cell was used. Furthermore, RERF-LC-MA/LZRNL cell with no insertion of any HSV-1 thymidine kinase gene was used as a control cell. The method for preparing these cells and the assay of the cellular toxicities were according to the method reported by Hasegawa et al. [see Hasegawa Y. et al., Am. J. Respir. Cell Mol. Biol. 8 (6) (1993) p. 655-661]. Based on the assay method of cellular toxicity, the cellular toxicities were confirmed by a calorimetric assay method using MTT [3-(4,5-dimethylthiazol-2-yl)-2,5-diphenyl-tetrazolium bromide].
(§3) The RERF-LC-MA/LTPNL cell suspension was diluted with a culture medium (E-MEM, 10% FBS) and inoculated at 2×10^3 cells/well in a 96-well plate. Then, the pharmaceutical component (guanine derivative) for use in accordance with the invention, ganciclovir and aciclovir were added at various concentrations to these wells. Subsequently, the cellular toxicities were assayed and confirmed by a calorimetric assay humid atmosphere for 4 days and using MTT on day 4.

RERF-LC-MA/LTRNL cell = experiment: Cellular toxicity in HSV-1 thymidine kinase gene-introduced cell (MTT); assay type: cell-based, Human; details: versus ganciclovir and aciclovir
Method: as §1, §2
as §3, with “Subsequently, the cellular toxicities were assayed and confirmed by a calorimetric assay humid atmosphere for 4 days and using MTT on day 4.” left out

For Nc1nc2c(ncn2COCCO)c(=O)[nH]1 [aciclovir], the therapeutic effect [1] is given as “extremely poor therapeutic effect”, the IC50 [2] is given as 26 µg/mL (≈ 115 µM) and the IC50 (RERF-LC-MA/LZRNL cell) is given as ≥ 250 µg/mL.

With Nc1nc(O)c2ncn(COC(CO)CO)c2n1 [ganciclovir] the IC50 [2] was 18 µg/mL (≈ 70.5 µM) and the IC50 (RERF-LC-MA/LZRNL cell) was ≥ 201 µg/mL.

With Nc1nc2c(ncn2C[C@]2(CO)C[C@H]2CO)c(=O)[nH]1 [guanine derivative, (-)-9-[1'S,2'R-bis(hydroxymethyl)cyclopropan-1'-yl]methylguanine] the “cellular toxicity effect compared with the conventional products” value (RERF-LC-MA/LTRNL cell) was “more excellent cellular toxicity effect, compared with the conventional products”, the IC50 [2] was ≥ 66 µg/mL and the “bone marrow toxicity compared with ganciclovir and aciclovir” value ([2]; inferred from CFU-GM colony IC50) was “possibly weaker than those of ganciclovir and aciclovir”. The IC50 (RERF-LC-MA/LZRNL cell) was ≥ 135 µg/mL.
